This note sets out measurements from patent US20240174634A1, “Aldehyde Dehydrogenase Inhibitors and Their Therapeutic Use” (priority 2020, published 2024).

The term IC50 denotes the concentration needed to halve the response being measured. Low values mean inhibition by little substance, high ones a need for much substance.

Bounds are passed on as bounds.

Experiment [1] addresses T1, ALDH1A1 (Homo sapiens, UniProt P00352).
T1 construct: His-tag; made in house; host or cells: E. coli Rosetta (DE3)
T1 sequence (P00352 1-501): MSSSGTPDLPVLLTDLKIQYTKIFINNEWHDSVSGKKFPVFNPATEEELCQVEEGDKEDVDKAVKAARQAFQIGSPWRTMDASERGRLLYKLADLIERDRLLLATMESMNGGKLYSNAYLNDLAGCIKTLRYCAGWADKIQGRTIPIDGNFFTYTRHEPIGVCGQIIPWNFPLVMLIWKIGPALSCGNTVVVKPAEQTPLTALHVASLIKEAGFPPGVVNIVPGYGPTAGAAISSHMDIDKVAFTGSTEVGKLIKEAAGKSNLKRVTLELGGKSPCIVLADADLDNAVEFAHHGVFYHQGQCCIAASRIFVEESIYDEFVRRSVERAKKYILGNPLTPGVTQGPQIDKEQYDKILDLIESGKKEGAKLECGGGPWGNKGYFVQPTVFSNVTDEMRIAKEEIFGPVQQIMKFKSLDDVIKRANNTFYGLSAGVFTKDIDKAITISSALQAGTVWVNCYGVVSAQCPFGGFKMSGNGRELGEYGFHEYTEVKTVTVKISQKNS
As to the kind of experiment: Selectivity biochemical assay, NAD(P)H-Glo Detection System. From the text: (§1) Cloning: Open reading frames corresponding to the protein coding sequences of full length human ALDH1A1 (Uniprot ID P00352), ALDH1A2 (094788) and ALDH1A3 (P47895) were polymerase chain reaction (PCR) amplified from human cDNA and inserted into the multi-cloning sites of the commercially available (Novagen) E. coli expression vectors pET47b (ALDH1A1, EcoRI restriction site; ALDH1A2, BamHI and EcoRI sites) or pET28a (ALDH1A3, NdeI and BamHI sites), using standard molecular genetic techniques. Recombinant DNA products were sequence verified prior to use in expression studies.
(§2) Expression: Expression constructs were transformed into the E. coli strain Rosetta (DE3) (Merck) and individual colonies used to inoculate 10 mL lysogen broth (LB) medium supplemented with kanamycin and chloramphenicol at 50 μg/mL and 34 μg/mL, respectively. Cultures were grown to saturation overnight at 37° C., prior to being used to sub-inoculate fresh 1 L LB medium cultures (plus antibiotics, as before). 1 L cultures were grown at 37° C., 200 rpm, throughout the day until the optical density at 600 nm (OD600) reached ˜0.8, at which point growth temperature was reduced to 18° C. and 1 mM isopropyl β-d-1-thiogalacto pyranoside (IPTG) added to induce protein expression.
(§3) Cultures were left overnight (at least 16 h) under these conditions and the following day harvested by centrifugation (4000 G, 10 minutes). Culture supernatant was discarded and cell pellets stored at −80° C. until further processing.
(§4) Purification: Cell pellets were thawed on ice, re-suspended in Ni Affinity Buffer A (20 mM HEPES pH 7.5, 300 mM NaCl, 20 mM imidazole, 1 mM tris(2-carboxyethyl)phosphine (TCEP)) with protease inhibitors (cOmplete Ultra protease inhibitor, Roche), and lysed by sonication. Lysates were clarified by centrifugation at 18,000 G, 4° C., for 40 minutes, and loaded directly onto a pre-equilibrated (Buffer A) 5 mL HisTrap Fast Flow column (GE Healthcare) by way of an AKTA Fast Protein Liquid Chromatography (FPLC) system. The column was sequentially treated with 6 column volumes (CV) 100% Buffer A, 8 CV of 90% Buffer A:10% Buffer B (20 mM 4-(2-hydroxyethyl)-1-piperazineethanesulfonic acid (HEPES) pH 7.5, 300 mM NaCl, 500 mM imidazole, 1 mM TCEP) and finally a linear gradient from 10-70% Buffer B over 8 CV to elute recombinant His-tagged protein. Relevant fractions (as measured by 280 nm absorbance) collected during elution were pooled and subjected to further purification by size exclusion chromatography (Superdex 200 26/600, GE Healthcare, running buffer 20 mM 2-(carbamoylmethylamino)ethanesulfonic acid (ACES) pH 7.5, 1 mM TCEP). Relevant fractions from this step were pooled, aliquoted, and stored at −80° C. until required for compound profiling assays.
(§5) Materials: ALDH2 was purchased from Abnova. Tris(hydroxymethyl)aminomethane (Tris) was purchased from MP Biomedicals. TCEP, ethylenediaminetetraacetic acid (EDTA), propionaldehyde, DMSO and Tween-20 were purchased from Sigma. Nicotinamide adenine dinucleotide (NAD) was obtained from Abcam. The NAD(P)H-Glo™ Detection System was purchased from Promega. White, non-binding surface, 384 well plates were supplied by Corning (#3574).
(§6) Method: Inhibition of ALDH1A3 was assessed using the NAD(P)H-Glo™ Detection System (Cat. No. G9062) from Promega. This assay detects the production of NADH from NAD by ALDH1A3 via the coupled enzymatic conversion of a proluciferin reductase substrate to generate a luminescent signal. Inhibition of ALDH1A3 by small molecule inhibitors will result in reduction or abrogation of luminescence signal increase above background. Inhibition of ALDH1A1, ALDH1A2 and ALDH2 (selectivity assays) were assessed using the same assay.
(§7) Compounds were dosed into Corning 384 well assay plates using an Echo acoustic dispenser to give 10 point curves in a 3-fold dilution series. Compounds were dispensed from a 20 mM DMSO stock and initially screened at a top concentration of 20 μM (ALDH1A3) or 250 μM (ALDH1A1, ALDH1A2 & ALDH2). […]

Experiment [2] deals with T2, ALDH1A2 (Homo sapiens, UniProt O94788).
T2 construct: His-tag; made in house; host or cells: E. coli Rosetta (DE3)
T2 sequence (O94788 1-518): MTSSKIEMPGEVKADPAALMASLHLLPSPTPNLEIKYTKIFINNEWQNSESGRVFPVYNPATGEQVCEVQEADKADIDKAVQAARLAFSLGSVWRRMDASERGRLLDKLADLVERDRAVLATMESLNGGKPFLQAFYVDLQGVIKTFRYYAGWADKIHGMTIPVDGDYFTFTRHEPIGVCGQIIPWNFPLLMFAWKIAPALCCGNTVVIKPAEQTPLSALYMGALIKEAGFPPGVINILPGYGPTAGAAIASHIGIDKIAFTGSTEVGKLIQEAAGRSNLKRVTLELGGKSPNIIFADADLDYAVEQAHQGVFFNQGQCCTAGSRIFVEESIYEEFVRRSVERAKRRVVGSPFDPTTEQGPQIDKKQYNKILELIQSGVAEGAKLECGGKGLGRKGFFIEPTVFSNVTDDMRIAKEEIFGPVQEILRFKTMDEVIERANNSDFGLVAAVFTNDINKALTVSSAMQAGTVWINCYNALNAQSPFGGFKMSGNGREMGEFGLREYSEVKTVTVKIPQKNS
The description is as above.
From the text: as §1, §2, §3, §4, §5, §6, §7

With `CC1(c2ccccc2)COCCN1CCOc1ccc2c(c1)CCC(=O)N2` (stereo not drawn) [ALDHI-2040, 6-[2-(3-methyl-3-phenyl-morpholin-4-yl)ethoxy]-3,4-dihydro-1H-quinolin-2-one], the IC50 was ≥ 100 µM in experiment [1] and 100 to 1000 nM in experiment [2].

With `O=C1CCc2cc(OCCN3CCCC3c3cccnc3)ccc2N1` (stereo not drawn) [ALDHI-2005, 6-[2-[2-(3-pyridyl)pyrrolidin-1-yl]ethoxy]-3,4-dihydro-1H-quinolin-2-one], the IC50 in experiment [1] is ≥ 100 µM; in experiment [2] it was 10000 to 100000 nM.

Take `CC1(c2cccc(F)c2)CCCN1CCOc1ccc2c(c1)CCC(=O)N2` (stereo not drawn) [ALDHI-2037, 6-[2-[2-(3-fluorophenyl)-2-methyl-pyrrolidin-1-yl]ethoxy]-3,4-dihydro-1H-quinolin-2-one]: the results for the IC50 in experiment [1] and in experiment [2] were ≥ 100 µM and 100 to 1000 nM, respectively.

In the case of `O=C1CCc2cc(OCCN3CCCC3c3ccccc3)ccc2N1` (stereo not drawn) [ALDHI-2019, 6-[2-(2-phenylpyrrolidin-1-yl)ethoxy]-3,4-dihydro-1H-quinolin-2-one], the concentration for half-maximal inhibition (IC50) in experiment [1] was ≥ 100 µM; in experiment [2] it was 100 to 1000 nM.

For the compound `O=C1CCc2cc(OCCN(CCO)Cc3cccc(F)c3)ccc2N1` [ALDHI-3002, 6-[2-[(3-fluorophenyl)methyl-(2-hydroxyethyl)amino]ethoxy]-3,4-dihydro-1H-quinolin-2-one], the IC50 in experiment [1] is ≥ 100 µM; in experiment [2], 100 to 1000 nM.

For `O=C1CCc2cc(OCCN3CCCC3c3cc(F)cc(F)c3)ccc2N1` (stereo not drawn) [ALDHI-2032, 6-[2-[2-(3,5-difluorophenyl)pyrrolidin-1-yl]ethoxy]-3,4-dihydro-1H-quinolin-2-one], the values for the IC50 in experiment [1] and in experiment [2] were 10 to 100 µM and 100 to 1000 nM, respectively.

For the compound `O=C1CSc2cc(OCCN3CCCC3c3cccnc3)ccc2N1` (stereo not drawn) [ALDHI-2028, 7-[2-[2-(3-pyridyl)pyrrolidin-1-yl]ethoxy]-4H-1,4-benzothiazin-3-one], the IC50 in experiment [1] was ≥ 100 µM; in experiment [2], ≥ 100000 nM.

For `CC1CN(CCOc2ccc3c(c2)CCC(=O)N3)C(c2ccccc2)CO1` (mixture of isomers) [ALDHI-2042, 6-[2-(2-methyl-5-phenyl-morpholin-4-yl)ethoxy]-3,4-dihydro-1H-quinolin-2-one], the half-maximal inhibitory concentration (IC50) is 10 to 100 µM in experiment [1] and 100 to 1000 nM in experiment [2].

In experiment [1], `O=C1CCc2cc(NC(=O)c3scnc3-c3ccccc3Cl)ccc2N1` [ALDHI-1012, 4-(2-chlorophenyl)-N-(2-oxo-3,4-dihydro-1H-quinolin-6-yl)thiazole-5-carboxamide] had an IC50 of 10 to 100 µM.

In the case of `O=C1CCc2cc(OCCN3CCC[C@@H]3c3cccc(F)c3)ccc2N1` [ALDHI-2007, 6-[2-[(2R)-2-(3-fluorophenyl)pyrrolidin-1-yl]ethoxy]-3,4-dihydro-1H-quinolin-2-one], the IC50 in experiment [1] is ≥ 100 µM; in experiment [2], 100 to 1000 nM.

As to `O=C1CCc2cc(OCCN3C(=O)CCC3c3ccccc3)ccc2N1` (stereo not drawn) [ALDHI-2051, 6-[2-(2-oxo-5-phenyl-pyrrolidin-1-yl)ethoxy]-3,4-dihydro-1H-quinolin-2-one], the figures for the IC50 in experiment [1] and in experiment [2] were ≥ 100 µM and 1000 to 10000 nM, respectively.

Take `O=C1CCc2cc(OCCN3CCC[C@H]3c3cccc(F)c3)ccc2N1` [ALDHI-2018, 6-[2-[(2S)-2-(3-fluorophenyl)pyrrolidin-1-yl]ethoxy]-3,4-dihydro-1H-quinolin-2-one]: the IC50 in experiment [1] is ≥ 100 µM; in experiment [2], 100 to 1000 nM.

In the case of `Cc1ccc(C2CCCN2CCOc2ccc3c(c2)CCC(=O)N3)cc1` (stereo not drawn) [ALDHI-2010, 6-[2-[2-(p-tolyl)pyrrolidin-1-yl]ethoxy]-3,4-dihydro-1H-quinolin-2-one], the figures for the IC50 in experiment [1] and in experiment [2] were ≥ 100 µM and ≥ 100000 nM, respectively.

With `O=C1CCc2cc(OCCN3CC(O)CC3c3cccc(F)c3)ccc2N1` (mixture of isomers) [ALDHI-2035, 6-[2-[2-(3-fluorophenyl)-4-hydroxy-pyrrolidin-1-yl]ethoxy]-3,4-dihydro-1H-quinolin-2-one], the values for the IC50 in experiment [1] and in experiment [2] were 10 to 100 µM and 100 to 1000 nM, respectively.

Consider `Cc1nc(C2CCCN2CCOc2ccc3c(c2)CCC(=O)N3)cs1` (stereo not drawn) [ALDHI-2033, 6-[2-[2-(2-methylthiazol-4-yl)pyrrolidin-1-yl]ethoxy]-3,4-dihydro-1H-quinolin-2-one], for which the IC50 was ≥ 100 µM in experiment [1] and ≥ 100000 nM in experiment [2].

Take `O=C1CCc2cc(OCCN3CCOCC3c3cccc(F)c3)ccc2N1` (stereo not drawn) [ALDHI-2031, 6-[2-[3-(3-fluorophenyl)morpholin-4-yl]ethoxy]-3,4-dihydro-1H-quinolin-2-one]: the IC50 in experiment [1] was ≥ 100 µM; in experiment [2], 100 to 1000 nM.

Consider `O=C1CCc2cc(NC(=O)c3sc(N4CC(O)C4)nc3-c3cccc(F)c3)ccc2N1` [ALDHI-1004, 4-(3-fluorophenyl)-2-(3-hydroxyazetidin-1-yl)-N-(2-oxo-3,4-dihydro-1H-quinolin-6-yl)thiazole-5-carboxamide], for which the IC50 in experiment [1] is ≥ 100 µM; in experiment [2], ≥ 100000 nM.

Take `O=C1COc2cc(OCCN3CCCC3c3cccc(F)c3)ccc2N1` (stereo not drawn) [ALDHI-2009, 7-[2-[2-(3-fluorophenyl)pyrrolidin-1-yl]ethoxy]-4H-1,4-benzoxazin-3-one]: the values for the concentration for half-maximal inhibition (IC50) in experiment [1] and in experiment [2] were ≥ 100 µM and 1000 to 10000 nM, respectively.

On to `O=C1CCc2cc(NC(=O)c3scnc3-c3ccc(F)cc3)ccc2N1` [ALDHI-1017, 4-(4-fluorophenyl)-N-(2-oxo-1,2,3,4-tetrahydroquinolin-6-yl)thiazole-5-carboxamide], for which the results for the IC50 in experiment [1] and in experiment [2] were ≥ 100 µM and 1000 to 10000 nM, respectively.

As for `O=C1CCc2cc(NC(=O)c3c[nH]nc3-c3cccc(F)c3)ccc2N1` [ALDHI-1006, 3-(3-fluorophenyl)-N-(2-oxo-1,2,3,4-tetrahydroquinolin-6-yl)-1H-pyrazole-4-carboxamide], the IC50 in experiment [1] is ≥ 100 µM.

As to `O=C1CCc2cc(NC(=O)c3cncnc3-c3cccc(F)c3)ccc2N1` [ALDHI-1018, 4-(3-fluorophenyl)-N-(2-oxo-3,4-dihydro-1H-quinolin-6-yl)pyrimidine-5-carboxamide], in experiment [1], the concentration for half-maximal inhibition (IC50) is ≥ 100 µM.
